Assay results taken from patent US11993591B2, “Chromen-4-one derivatives for the treatment and prophylaxis of hepatitis B virus disease” (Hoffmann-La Roche Inc., priority 2018, dated 2024).

Key:
[1] = system: HBV cccDNA (HBeAg level) in HepDES19 cells; assay: Engineered HepDES19 primary screen assay (HBeAg as surrogate marker for cccDNA); format: cell-based; details: Hepatitis B virus, HepDES19, 120 h
Description: The assay was employed to screen for novel cccDNA inhibitors. HepDES19 is a cccDNA-producing cell line. In this cell line, HBeAg in the cell culture supernatant as surrogate marker, as HBeAg production depends on cccDNA level and activity. HepDES19 is an engineered cell line which contains a 1.1 unit length HBV genome, and pgRNA transcription from the transgene is controlled by Tetracycline (Tet). In the absence of Tet, pgRNA transcription will be induced, but HBV e antigen (HBeAg) could not be produced from this pgRNA due to very short leader sequence before the HBeAg start codon and the start codon is disrupted. Only after cccDNA is formed, the missing leader sequence and start codon mutation would be restored from the 3′-terminal redundancy of pgRNA, and then HBeAg could be synthesized. Therefore, HBeAg could be used as a surrogate marker for cccDNA (Zhou, T. et al., Antiviral Res. (2006), 72(2), 116-124; Guo, H. et al., J. Virol. (2007), 81(22), 12472-12484).
HepDES19 cells were seeded at 2×10^6 cells per T150 flask and cultured with the culture medium (Dulbecco's Modified Eagle Medium: Nutrient Mixture F-12 [DMEM-F12, Gibco Cat. 11320-82], 10% Fetal Bovine Serum [FBS, Clontech Cat. 631101], 0.1 mM Non-Essential Amino Acids Solution [NEAA, Gibco Cat. 11140-050], 50 μg/mL Penicillin-Streptomycin [PS, Invitrogen Cat. 15140-163], 500 μg/mL Geneticin [G418, Invitrogen Cat. 10131-027]) containing 3 μg/mL Tet (Sigma, Cat. 87128) for 5 days. Cells were then seeded at 4×10^6 cells per T150 in the same culture medium as described above in the absence of Tet for 8 days. Cells were then harvested and frozen at density of 2×10^6 cells per mL. For compound testing, the frozen cells were thawed and seeded into 96-well plates at a density of 6×10^4 cells per well. At 24 hours after seeding, half log serial dilutions of compounds made with Dimethyl sulfoxide (DMSO, Sigma, Cat. D2650) were further diluted with the same culture medium as described above before they were added to the cells to reach desired final compound concentrations and 1% DMSO concentration. Plates were then incubated at 37° C. for another 5 days before measurement of HBeAg level and cell viability. Intracellular HBeAg level were measured with enzyme-linked immunosorbent assay (ELISA) kit (Shanghai Kehua Diagnostic Medical Products Co., Ltd). Cell viability was assessed using Cell Counting Kit-8 (Donjindo, Cat. CK04-20). IC50 values were derived from the dose-response curve using 4 parameter logistic curve fit method.
The compounds of the present invention were tested for their capacity to inhibit extracellular HBeAg level as described herein.

[2] = system: HBV (extracellular HBsAg) in primary human hepatocytes; assay: Cryopreserved Primary Human Hepatocytes (PHH) HBV infection assay; format: cell-based; details: Hepatitis B virus, Hepatocyte, 216 h; extracellular HBsAg (CLIA), HBV-infected cryopreserved PHH, 9 days post-compound treatment
Procedure: This assay is used to confirm the anti-HBV effect of the compounds in HBV PHH infection assay. Cryopreserved PHH (BioreclamationIVT, Lot YJM) was thawed at 37° C. and gently transferred into pre-warmed InVitroGRO HT medium (BioreclamationIVT, Cat. S03317).
The mixture was centrifuged at 70 relative centrifugal force (RCF) for 3 mins at RT, and the supernatant was discarded. Pre-warmed InVitroGRO CP medium (BioreclamationIVT, Cat #S03316) was added to the cell pellet to gently re-suspend cells. The cells were seeded at the density of 5.8×10^4 cells per well to collagen I coated 96-well plate (Gibco, Cat. A1142803) with the InVitroGRO CP medium. All plates were incubated at 37° C. with 5% CO2 and 85% humidity.
At 20 hours after plating, the medium was changed to PHH culture medium (Dulbecco's Modified Eagle Medium (DMEM)/F12 (1:1) (Gibco, Cat. 11320-033), 10% fetal bovine serum (Gibco Cat. 10099141), 100 U/mL penicillin, 100 μg/mL streptomycin (Gibco, Cat. 151401-122), […] (Invitrogen Cat. PHG0311L), 20 ng/mL dexamethasone (Sigma, Cat. D4902) and 250 ng/mL human recombinant insulin (Gibco, Cat. 12585-014)). And the cells were incubated at 37° C. with 5% CO2 and 85% humidity for 4 hours. The medium was then changed to pre-warmed PHH culture medium containing 4% polyethylene glycol (PEG) MW8000 (Sigma, Cat. P1458-50ML) and 1% DMSO (Sigma, Cat. D2650). 5.8×10^6 genomic equivalents of HBV were added into the medium.
At 24 hours post-infection, the cells were gently washed with PBS and refreshed with PHH culture medium supplemented with 1% DMSO, and 0.25 mg/mL Matrix gel (Corning, Cat. 356237) at 200 μL per well. All plates were immediately placed in at 37° C. CO2 incubator. 24 hours later, serial dilutions of compounds made with DMSO were further diluted with the same culture medium (PHH culture medium supplemented with 1% DMSO and 0.25 mg/mL Matrix gel as described above) before they were added to the cells to reach desired final compound concentrations and 1% DMSO concentration. The medium containing the compounds were refreshed every three days.
At 9 days post-compound treatment, extracellular HBsAg level were measured with Chemiluminescence Immuno Assay (CLIA) kit (Autobio, HBsAg Quantitative CLIA). Extracellular HBV DNA was extracted by MagNA Pure 96 system (Roche) and then determined by quantitative PCR with the following primers and probe: […]
HBsAg IC50 and HBV DNA IC50 values were derived from the dose-response curve using 4 parameter logistic curve fit method.

Structure (SMILES)	IC50 [1]	IC50 [2]
Cc1cc(Cl)ccc1NC(=O)c1oc2ccc(Cl)cc2c(=O)c1C [Example 3, 6-chloro-N-(4-chloro-2-methylphenyl)-3-methyl-4-oxo-chromene-2-carboxamide]	0.64 µM	6.47 µM
O=C(c1cc(=O)c2cccc(Cl)c2o1)N1Cc2ccc(Br)cc2C1 [Example 4, 2-(5-bromoisoindoline-2-carbonyl)-8-chloro-chromen-4-one]	3.6 µM	6.58 µM
O=C(Nc1ccc(Cl)cc1OC1CC(C(=O)O)C1)c1cc(=O)c2cccc(Cl)c2o1 (stereo not drawn) [Example 7, 3-(5-chloro-2-(8-chloro-4-oxo-chromene-2-carboxamido)phenoxy)cyclobutane-1-carboxylic Acid]	1.66 µM	10 µM
O=C(O)c1cccc(CN2CCN(c3cc(=O)c4cccc(Cl)c4o3)CC2)c1 [Example 38, 3-((4-(8-chloro-4-oxo-chromen-2-yl)piperazin-1-yl)methyl)benzoic Acid]	–	38.5 µM
O=C(O)COCCOC1CC2CCC(C1)N2c1cc(=O)c2cccc(Cl)c2o1 (stereo not drawn) [Example 39, 2-(2-((8-(8-chloro-4-oxo-chromen-2-yl)-8-azabicyclo[3.2.1]octan-3-yl)oxy)ethoxy)acetic Acid]	–	38.5 µM
CC1c2ccc(OCCOC3CC(C(=O)O)C3)cc2CCN1c1cc(=O)c2cccc(Cl)c2o1 (stereo not drawn) [Example 40, 3-[2-[[2-(8-chloro-4-oxo-chromen-2-yl)-1-methyl-3,4-dihydro-1H-isoquinolin-6-yl]oxy]ethoxy]cyclobutanecarboxylic Acid]	–	34.6 µM
